According to patent US8097585B2, “Methods of treating inflammation by administration of heme oxygenase-1 and products of heme degradation” (priority 2002, dated 2012):
Counter-ions that a name gives are not always drawn.

Key:
[1] = tested on: IL-2 receptor α-chain (IL-2Rα, CD25); assay: Flow cytometric analysis of IL-2R (CD25) expression; format: cell-based, mouse; conditions: biliverdin 100 μM, anti-CD3 mAb stimulated, 6 and 24 hours
Method: Flow cytometric analysis (IL-2R expression). B6AF1 leukocytes (5×10^5 cells/well) were stimulated with anti-CD3 mAb (1 μg/ml) and cultured in 96 well round bottom plates with or without biliverdin (100 μM). Six and 24 hours after stimulation, cells were harvested, washed, and stained with fluorochrome conjugated isotype control Abs, or specific anti-CD4 and/or anti-CD25 mAbs (all antibodies obtained from BD Pharmingen). Non-stimulated naïve leukocytes were used as a negative control. Following Abs staining, cell samples were analyzed using a FACSort™ flow cytometer and CellQuest™ software (BD Biosciences, Palo Alto, Calif.). Ten thousand CD4+ T cells were acquired for each sample and their CD25 expression was examined. The experiment was repeated 3 times.

IL-10 = assay: Endotoxic shock (LPS) model, serum IL-10; format: in vivo, Sprague-Dawley rats; conditions: biliverdin i.p. […] 17 h and 1 h prior to and 8 h after LPS
Method: (§1) Treatment Protocol. Endotoxin (lipopolysaccharide/LPS; Sigma; E. coli serotype 0128:B7; 3 mg/kg, i.v.) was administered to male Sprague-Dawley, resulting in an acute non-lethal inflammation. In rats, a sublethal dose of LPS results in a moderate lung inflammation characterized by neutrophil accumulation and protein accumulation in the airspace, both markers of lung inflammation. The pro-inflammatory cytokine TNF-alpha increases very rapidly in the serum, peaking by 60-90 minutes. This is followed by increases in IL-10, a prototypical anti-inflammatory cytokine that peaks 8-12 hr later.
(§2) Administration of Biliverdin. Biliverdin (Frontier Scientific: prepared in PBS following solubilization in NaOH) was administered i.p. at […] 17 hours prior to, one hour prior to, and eight hours after LPS administration.
(§3) Bronchoalveolar Lavage. A bronchoalveolar lavage (BAL) was performed 24 hours after LPS administration. Serum cytokines were measured using commercially available ELISA kits (R&D Systems Inc.) per the manufacturer's instructions. Total protein was determined via a standard Bradford assay based on a standard curve. […] Total cell count was determined as well as differential analysis of cell type and morphology via Diff-Quik® Fixative (American Scientific Products) staining of a sample of the lavagate.

[2] = tested on: neointimal formation in carotid arteries; assay: Carotid balloon injury model, neointimal formation; format: in vivo, Lewis Rats; conditions: 14 days
Text: Animals. Adult male Lewis Rats (LEW/CrlBR; Charles River Laboratories, Wilmington, Mass.) weighing 350-400 g were used in the balloon injury model. Animals were housed in accordance with the guidelines from the American Association for Laboratory Animal Care and research protocols were approved by the institutional animal care and use committee of the Beth Israel Deaconess Medical Center, Boston, Mass.
Balloon Injury model. After the exposure of the left common carotid and the left external carotid arteries, a 2F Fogarty catheter (Edwards Lifesciences LLC, Irvine, Calif.) was introduced via the external carotid artery and was advanced into the left common carotid artery, inflated to 2 atmospheres of pressure and pulled back to the point of bifurcation, then deflated. This procedure was repeated three times.
Experimental reagents and design. […]
Histomorphometric analysis. […] Images were analyzed by manual segmentation, tracing intima and media in each section. Areas and diameters were calculated by digital imaging software (AxioVision™, Carl Zeiss, Jena, Germany) as number of pixels corresponding to those areas and diameters. […] 24 sections from each group were statistically analyzed with StatView® software version 5.0 using ANOVA.

TNF-alpha = assay: Endotoxic shock (LPS) model, serum TNF-alpha; format: in vivo, Sprague-Dawley rats; conditions: biliverdin i.p. […] 17 h and 1 h prior to and 8 h after LPS 3 mg/kg i.v.
Method: as §1, §2, §3

nitric oxide = assay: Serum nitrite/nitrate, SITx with preserved intestine; format: in vivo, LEW rats
Method: Detection of Serum Mediators. Serum samples from the recipients transplanted with preserved intestine were taken at 3 and 12 hours after reperfusion and stored at […] until evaluation. Serum IL-6 was determined using a rat enzyme-linked immunoassay (ELISA) kits as described by the manufacturer (R & D Systems, Inc., Cambridge, Mass.). To monitor the production of nitric oxide, the stable end products of NO metabolism, serum nitrite/nitrate levels, were measured 12 hours after engraftment using a commercially available test kit (Cayman, Ann Arbor, Mich.). In this assay system, nitrate is reduced to nitrite using nitrate reductase, and the nitrite concentration of the sample is subsequently measured using the Griess reaction.

## C=CC1=C(C)/C(=C/C2=NC(=C\c3[nH]c(/C=C4\NC(=O)C(C)=C4C=C)c(C)c3CCC(=O)O)/C(CCC(=O)O)=C2C)NC1=O [biliverdin, biliverdin dihydrochloride]
[1]
  expression of IL-2Rα (CD25) on splenic CD4+ T cells: did not affect
IL-10
  IL-10 level: augmentation
[2]; local pre-treatment, instilled into common carotid artery for one hour
  neointimal formation after balloon injury: significantly inhibits neointimal formation
[2]; systemic treatment, 50 μmol/kg i.p. at two time points
  neointimal formation after balloon injury: significantly inhibits neointimal formation
TNF-alpha
  levels of LPS-induced TNF-alpha: reduced
Nitric oxide; BV treated controls (no transplant)
  mean serum nitrite/nitrate (NO) level: 18.4 ± 3.2 µM
Nitric oxide; SITx, 12 hours after engraftment
  decrease of transplantation-induced serum NO levels: 53%
Nitric oxide; SITx, 12 hours after engraftment, untreated 34.4±15.2
  serum NO level: 18.2 ± 3.9 µM
